Earlier results in publication PMC11280411, “Phytochemical Investigation of Carex praecox Schreb. and ACE-Inhibitory Activity of Oligomer Stilbenes of the Plant” (Molecules, 2024).

Tested on: SARS-CoV-2 USA-WA1/2020, B.1.1.7, and B.1.351 variants
Set-up: method as in PMID 34543092
Settings: cited from earlier work

Oc1ccc(C2Oc3cc(O)cc4c3C2c2cc(O)cc(O)c2C(c2ccc(O)cc2)C4C2c3cc(O)cc4c3C(c3cc(O)cc(O)c3C2c2ccc(O)cc2)C(c2ccc(O)cc2)O4)cc1 (single isomer, unassigned; (-)) [Compound 16, (–)-hopeaphenol]
inhibition of cellular entry of SARS-CoV-2: inhibited cellular entry of SARS-CoV-2 USA-WA1/2020, B.1.1.7, and B.1.351 variants
